From ChEMBL document CHEMBL3751771, “LpxC Inhibitors as Effective Therapy Against Multidrug Resistant Bacterial Infections” (2015)
≈ marks a conversion by molar mass, not a printed value.

Tests used:
Type in all cases: functional
Klebsiella pneumoniae = test: Antibacterial activity against Klebsiella pneumoniae A-651
Pseudomonas aeruginosa = test: Antibacterial activity against Pseudomonas aeruginosa ATCC 27853
Escherichia coli = test: Antibacterial activity against Escherichia coli ATCC 25922

Row | Structure (SMILES) | MIC (Klebsiella pneumoniae) [µg/mL] | MIC (Pseudomonas aeruginosa) [µg/mL] | MIC (Escherichia coli) [µg/mL]
1 | C[C@@](CCN1Cc2cc(C#Cc3ccc(COC(N)=O)cc3)cn2C1=O)(C(=O)NO)S(C)(=O)=O | 0.25 (≈ 0.512 µM) | 0.5 (≈ 1.02 µM) | ≤ 0.063
2 | C[C@@](CCN1Cc2cc(C#CC#C[C@@H]3C[C@@]3(F)CO)cn2C1=O)(C(=O)NO)S(C)(=O)=O | 0.25 (≈ 0.554 µM) | 0.5 (≈ 1.11 µM) | 0.25 (≈ 0.554 µM)
3 | C[C@@](CCN1Cc2cc(C#Cc3ccc(C4(CN)CC4)cc3)cn2C1=O)(C(=O)NO)S(C)(=O)=O.O=CO | 8 | 4 | 8

More lines, now with the values ahead:

Row | MIC (Klebsiella pneumoniae) [µg/mL] | MIC (Pseudomonas aeruginosa) [µg/mL] | MIC (Escherichia coli) [µg/mL] | Structure (SMILES)
4 | 0.125 (≈ 0.266 µM) | 4 (≈ 8.51 µM) | ≤ 0.063 | CCOc1ccc(-c2cc3n(c2)C(=O)N(CC[C@](C)(C(=O)NO)S(C)(=O)=O)C3)c(Cl)c1
5 | ≤ 0.063 | 1 (≈ 2.28 µM) | 0.125 (≈ 0.284 µM) | COc1ccc(-c2cc3n(c2)C(=O)N(CC[C@](C)(C(=O)NO)S(C)(=O)=O)C3)c(F)c1
6 | 0.5 (≈ 1.05 µM) | 1 (≈ 2.1 µM) | 0.125 (≈ 0.263 µM) | C[C@@](CCN1Cc2cc(C#Cc3ccc(OCCO)cc3)cn2C1=O)(C(=O)NO)S(C)(=O)=O
